Each structure is given as a SMILES string. Bounds are passed on as bounds.

In patent publication EP1712550A2, “Substituted triazole diamine derivatives as kinase inhibitors” (priority 2000, dated 2002) one finds IC50 data, which are given here for 15 molecules.

One assay concerns A375 malignant melanoma. In words: Inhibition of Cell Proliferation, 14C-thymidine incorporation, A375. The assay is classed as cell-based. To be noted: Homo sapiens, A-375; Cell Line A375. The protocol:
(§1) The ability of a test compound to inhibit the proliferation of cell growth was determined by measuring incorporation of ^14C-labelled thymidine into newly synthesized DNA within the cells. This method was used on cell lines derived from carcinomas originating from several tissues such as HeLa cervical adenocarcinoma (American Type Culture Collection (ATCC), Virginia, Cat. #CCL-2), A375 malignant melanoma (ATCC CRL-1619), SK-OV-3 ovarian adenocarcinoma (ATCC HTB-77) HCT-116 colon carcinoma (CCL-247), PC-3 prostate adenocarcinoma (ATCC CRL-1435), and MDA-MB-231 (Xenogen Corp.) In this way the effect of a compound on cell growth of cells with many different phenotypes can be determined. Cells were trypsinized and counted and 3000-8000 cells were added to each well of a 96-well CytoStar tissue culture treated scintillating microplate (Amersham #RPNQ0160) in complete medium in a volume of 100 µl. Cells were incubated for 24 hours in complete medium at 37°C in an atmosphere containing 5% CO2. Next, 1 µl of test compound in 100% DMSO was added to the wells of the plate. DMSO only was added to control wells. Cells were incubated for 24 more hours in complete medium at 37°C in an atmosphere containing 5% CO2. Methyl^14C-thymidine 56 mCi/mmol (NEN #NEC568 or Amersham #CFA532) was diluted in complete medium and 0.2 uCi/well was added to each well of the CytoStar plate in a volume of 20 ul. The plate was incubated for 24 hours at 37°C plus 5% CO2 in drug plus ^14C-thymidine. The contents of the plate were discarded into a ^14C radioactive waste container by inverting the plate and the plate was washed twice with 200 µl PBS. 200 µl of PBS is added to each well. The top of the plate was sealed with a transparent plate sealer and a white plate backing sealer (Packard #6005199) was applied to the bottom of the plate. The degree of methyl ^14C-thymidine incorporation was quantified on a Packard Top Count.

The subject of the next assay is HCT-116 colon carcinoma. In words: Inhibition of Cell Proliferation, 14C-thymidine incorporation, HCT-116. It counts as cell-based. Conditions: Homo sapiens; Cell Line HCT-116. How it is done:
as §1

Assay [1] has as its system HeLa cervical adenocarcinoma. Nature of the assay: Inhibition of Cell Proliferation, 14C-thymidine incorporation, HeLa. It counts as cell-based. Conditions: Homo sapiens; Cell Line HeLa. How it is done: as §1
For assay [2], the system named is PC-3 prostate adenocarcinoma. Nature of the assay: Inhibition of Cell Proliferation, 14C-thymidine incorporation, PC-3. It counts as cell-based. Conditions: Cell Line PC-3. How it is done: as §1
The target of assay [3] is T1, VEGF-R (vascular endothelial growth factor receptor-2) (Rattus norvegicus, UniProt O08775).
T1 construct: 6xHis (polyhistidine) (N)
Nature of the assay: VEGF-R Screening Assay. It counts as biochemical. Conditions: read-out: Kinase Assay (IC50 uM) VEGF-R. How it is done: (§2) 70 µL of the kinase reaction mixture was dispensed into the well of a streptavidin coated FlashPlate™ (Cat. # SMP103, NEN, Boston, MA). Then 1 µL of test compound stock in 100% DMSO was added to the wells resulting in a final concentration of 1% DMSO in the reaction with a 100 µL final reaction volume. Next, soluble rat tyrosine kinase containing an N-terminal 6XHIS tag was diluted in 50 mM Tris-HCl pH=8.0, 0.1% BSA at a concentration of 5 ng per µL and 30 µL (150 ng enzyme per test well) was added to each well to initiate the reaction. The reaction was incubated for one hour at 30°C. At the end of the 1-hour incubation, the reaction was terminated by aspirating the reaction mixture from the plate and washing the wells twice with PBS containing 100 mM EDTA. The PLC1 biotinylated peptide substrate became immobilized on the Flashplate™ and the incorporation of ^33P-γ-ATP was measured by reading the plate on a scintillation counter. Inhibition of the enzymatic activity of the VEGF-R was measured by observing a reduced amount of ^33P-γ-ATP incorporated into the immobilized peptide. […]

Assay [4] has as its target T2, HER2 (human epidermal growth factor receptor-2) (Homo sapiens, UniProt P04626).
T2 construct: begins at amino acid 676 followed by the remainder of the HER2 cytoplasmic domain; polyhistidine (N)
Nature of the assay: Kinase Selectivity Assay HER2. The assay is classed as biochemical. To be noted: read-out: Kinase Assay (IC50 uM) HER2 Kinase.

Assay [5] concerns the target T3, EGFR (epidermal growth factor receptor) (Homo sapiens, UniProt P00533).
T3 construct: is purified from human A431 cell membranes (Sigma, St. Louis, MO, Cat.# E3641); purchased Sigma, St. Louis, MO E3641; host or cells: human A431 cell membranes (endogenous protein)
Nature of the assay: Kinase Selectivity Assay EGF-R. To be noted: read-out: Kinase Assay (IC50 uM) EGF-R. The assay is classed as biochemical.

A further assay deals with T4, CDK1:Cyclin-B (Homo sapiens, UniProt P06493).
T4 construct: purchased New England Biolabs, Beverly, MA 6020; host or cells: insect cells
Nature of the assay: CDK1 Screening Assay. To be noted: read-out: Kinase Assay (IC50 uM) CDK1. The assay is classed as biochemical. How it is done:
as §2, with “100 µl” for “100 µL”, “Next, CDK1:Cyclin-B protein” for “Next, soluble rat tyrosine kinase containing an N-terminal 6XHIS tag”, “of 1” for “of 5”, “30 µl (30ng” for “30 µL (150 ng”, “The histone-H1” for “The PLC1”, “of CDK1” for “of the VEGF-R”

Another assay concerns the target PKC (protein kinase-C). In words: Kinase Selectivity Assay PKC. The assay is classed as biochemical, human.

T1 sequence (O08775 786-1343): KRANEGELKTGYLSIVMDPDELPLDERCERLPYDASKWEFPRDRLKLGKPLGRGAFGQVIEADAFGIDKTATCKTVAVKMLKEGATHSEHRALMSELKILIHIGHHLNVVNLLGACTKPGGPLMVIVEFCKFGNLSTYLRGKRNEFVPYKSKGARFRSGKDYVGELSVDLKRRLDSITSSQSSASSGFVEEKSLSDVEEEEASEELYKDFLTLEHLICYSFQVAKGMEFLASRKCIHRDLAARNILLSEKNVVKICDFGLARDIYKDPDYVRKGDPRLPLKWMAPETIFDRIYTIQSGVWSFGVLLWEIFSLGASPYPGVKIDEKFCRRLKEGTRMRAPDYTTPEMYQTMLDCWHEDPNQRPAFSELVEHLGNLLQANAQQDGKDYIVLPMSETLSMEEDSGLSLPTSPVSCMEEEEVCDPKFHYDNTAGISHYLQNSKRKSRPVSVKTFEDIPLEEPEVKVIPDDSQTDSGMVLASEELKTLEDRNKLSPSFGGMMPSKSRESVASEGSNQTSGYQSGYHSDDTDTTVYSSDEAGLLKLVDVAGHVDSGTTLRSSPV
T3 sequence (P00533 25-1210): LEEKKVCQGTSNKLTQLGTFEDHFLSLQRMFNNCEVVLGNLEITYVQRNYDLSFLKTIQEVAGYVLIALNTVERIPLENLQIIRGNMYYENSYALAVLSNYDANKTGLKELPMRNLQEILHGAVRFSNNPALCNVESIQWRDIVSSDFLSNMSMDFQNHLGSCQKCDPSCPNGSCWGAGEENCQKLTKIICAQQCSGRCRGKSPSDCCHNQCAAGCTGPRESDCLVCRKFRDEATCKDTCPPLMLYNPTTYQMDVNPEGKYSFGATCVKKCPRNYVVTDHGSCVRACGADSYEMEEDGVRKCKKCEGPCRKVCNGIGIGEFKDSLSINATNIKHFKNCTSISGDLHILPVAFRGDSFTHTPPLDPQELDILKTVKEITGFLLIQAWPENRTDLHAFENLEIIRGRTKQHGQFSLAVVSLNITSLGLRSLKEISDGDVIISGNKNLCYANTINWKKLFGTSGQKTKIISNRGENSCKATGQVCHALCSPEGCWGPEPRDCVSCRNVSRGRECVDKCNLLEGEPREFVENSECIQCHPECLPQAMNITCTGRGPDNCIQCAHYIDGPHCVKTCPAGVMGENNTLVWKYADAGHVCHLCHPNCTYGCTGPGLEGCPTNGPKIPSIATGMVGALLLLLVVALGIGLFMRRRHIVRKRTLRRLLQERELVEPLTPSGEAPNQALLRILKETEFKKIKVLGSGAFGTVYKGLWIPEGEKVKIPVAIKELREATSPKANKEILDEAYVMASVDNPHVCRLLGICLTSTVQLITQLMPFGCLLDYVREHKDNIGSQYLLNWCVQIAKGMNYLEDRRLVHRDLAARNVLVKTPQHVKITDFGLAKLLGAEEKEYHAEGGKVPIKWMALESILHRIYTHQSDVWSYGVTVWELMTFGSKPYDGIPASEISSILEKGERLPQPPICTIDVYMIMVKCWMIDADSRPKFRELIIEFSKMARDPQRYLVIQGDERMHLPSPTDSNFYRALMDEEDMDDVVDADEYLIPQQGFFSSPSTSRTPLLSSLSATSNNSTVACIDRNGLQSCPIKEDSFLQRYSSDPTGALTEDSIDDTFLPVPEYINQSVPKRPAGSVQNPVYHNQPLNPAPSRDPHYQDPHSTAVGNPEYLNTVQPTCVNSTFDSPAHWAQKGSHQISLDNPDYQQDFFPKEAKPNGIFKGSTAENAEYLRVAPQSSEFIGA
T4 sequence (P06493 whole entry): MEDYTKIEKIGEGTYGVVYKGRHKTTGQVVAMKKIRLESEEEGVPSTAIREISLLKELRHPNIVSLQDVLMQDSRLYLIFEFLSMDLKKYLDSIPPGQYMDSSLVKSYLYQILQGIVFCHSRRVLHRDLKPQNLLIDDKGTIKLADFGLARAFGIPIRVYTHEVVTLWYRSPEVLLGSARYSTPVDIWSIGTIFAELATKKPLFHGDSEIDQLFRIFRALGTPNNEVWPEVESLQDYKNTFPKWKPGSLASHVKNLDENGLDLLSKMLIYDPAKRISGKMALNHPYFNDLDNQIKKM
T4 sequence (P14635 whole entry partner): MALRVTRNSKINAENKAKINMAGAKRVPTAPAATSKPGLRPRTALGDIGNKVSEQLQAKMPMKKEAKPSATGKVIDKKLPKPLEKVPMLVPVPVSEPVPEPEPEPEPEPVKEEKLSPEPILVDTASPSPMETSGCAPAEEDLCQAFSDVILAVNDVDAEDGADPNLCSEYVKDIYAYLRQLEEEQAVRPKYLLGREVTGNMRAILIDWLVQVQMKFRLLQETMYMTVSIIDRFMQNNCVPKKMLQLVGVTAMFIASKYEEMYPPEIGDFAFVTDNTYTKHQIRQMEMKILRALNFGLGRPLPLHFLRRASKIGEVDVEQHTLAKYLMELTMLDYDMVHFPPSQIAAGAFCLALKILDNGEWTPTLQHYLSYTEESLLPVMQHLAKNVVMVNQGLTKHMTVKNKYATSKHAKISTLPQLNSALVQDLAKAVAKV
T2 sequence (P04626 676-1255 limits assumed): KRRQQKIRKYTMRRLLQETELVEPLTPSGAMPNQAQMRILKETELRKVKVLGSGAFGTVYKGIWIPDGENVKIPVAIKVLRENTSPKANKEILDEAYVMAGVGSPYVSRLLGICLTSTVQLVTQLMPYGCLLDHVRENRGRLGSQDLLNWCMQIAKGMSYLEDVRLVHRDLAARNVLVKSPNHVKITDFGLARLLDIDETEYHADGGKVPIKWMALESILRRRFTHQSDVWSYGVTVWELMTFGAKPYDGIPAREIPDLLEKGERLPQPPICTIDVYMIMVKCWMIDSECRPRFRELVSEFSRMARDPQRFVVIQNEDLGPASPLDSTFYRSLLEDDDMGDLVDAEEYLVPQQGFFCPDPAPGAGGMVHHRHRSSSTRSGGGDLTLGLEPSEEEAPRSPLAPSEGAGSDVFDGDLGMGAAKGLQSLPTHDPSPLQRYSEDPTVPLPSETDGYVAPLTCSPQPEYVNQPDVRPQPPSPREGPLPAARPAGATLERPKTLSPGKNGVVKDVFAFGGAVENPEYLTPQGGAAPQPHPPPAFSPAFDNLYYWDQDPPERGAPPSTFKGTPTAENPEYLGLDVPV

For the molecule `Cc1ccsc1C(=O)n1nc(Nc2ccc(S(N)(=O)=O)cc2)nc1N` [Cpd 15, 4-[[5-amino-1-[(3-methyl-2-thienyl)carbonyl]-1H-1,2,4-triazol-3-yl]amino]-benzenesulfonamide], the IC50 came to 247 nM in the assay with A375 malignant melanoma, 127 nM in the assay on HCT-116 colon carcinoma, 91 nM in [1] and 107 nM in assay [2].
For `Nc1nc(Nc2ccc(S(N)(=O)=O)cc2)nn1C(=S)Nc1c(F)cccc1F` [Cpd 66, 5-amino-3-[[4-(aminosulfonyl)phenyl]amino]-N-(2,6-difluorophenyl)-1H-1,2,4-triazole-1-carbothioamide], the IC50 with A375 malignant melanoma worked out at 92 nM; in the assay with HCT-116 colon carcinoma, 20 nM; in assay [1], 35 nM.
As to `Cc1ccc(F)c(C(=O)n2nc(Nc3ccc(S(N)(=O)=O)cc3)nc2N)c1Cl` [Cpd 69, 4-[[5-amino-1-(2-chloro-6-fluoro-3-methylbenzoyl)-1H-1,2,4-triazol-3-yl]amino]-benzenesulfonamide], the half-inhibitory concentration (IC50) is 0.685 µM in [3], 0.139 µM in assay [4], > 100 µM in assay [5] and 8 nM in assay [2].
For the molecule `CNS(=O)(=O)c1ccc(Nc2nc(N)n(C(=O)c3c(F)ccc(C)c3F)n2)cc1` [Cpd 81, 4-[[5-amino-1-(2,6-difluoro-3-methylbenzoyl)-1H-1,2,4-triazol-3-yl]amino]-N-methyl-benzenesulfonamide], the IC50 is 0.018 µM on CDK1:Cyclin-B, 0.482 µM in assay [3], 1.7 µM in assay [4] and > 100 µM in assay [5].
As for `CNS(=O)(=O)c1ccc(Nc2nc(N)n(C(=O)c3sc(C)cc3C)n2)cc1` [Cpd 83, 4-[[5-amino-1-[(3,5-dimethyl-2-thienyl)carbonyl]-1H-1,2,4-triazol-3-yl]amino]-N-methyl-benzenesulfonamide], the results for the IC50 (on CDK1:Cyclin-B; in assay [3]; in assay [5]) were 0.008 µM, 0.04 µM and > 100 µM, respectively.
On to `Cc1ccsc1C(=O)n1nc(Nc2ccc(-n3cncn3)cc2)nc1N` [Cpd 99, 1-[(3-methyl-2-thienyl)carbonyl]-N^3-[4-(1H-1,2,4-triazol-1-yl)phenyl]-1H-1,2,4-triazole-3,5-diamine], for which the IC50 on CDK1:Cyclin-B was 0.366 µM; at PKC (protein kinase-C), > 100 µM; in assay [4] it was 0.095 µM; in assay [5], > 100 µM.
As to `Cc1ccc(F)c(C(=O)n2nc(Nc3ccc(S(=O)(=O)NCCN(C)C)cc3)nc2N)c1F` [Cpd 105, 4-[[5-amino-1-(2,6-difluoro-3-methylbenzoyl)-1H-1,2,4-triazol-3-yl]amino]-N-[2-(dimethylamino)ethyl]-benzenesulfonamide], the IC50 at CDK1:Cyclin-B turned out to be 0.046 µM; in assay [3], 0.276 µM; in assay [4], 0.845 µM; in assay [5], 9.6 µM.
The like results for `Cc1cc(C)c(C(=O)n2nc(Nc3ccc(S(=O)(=O)NCCN(C)C)cc3)nc2N)s1` [Cpd 107, 4-[[5-amino-1-[(3,5-dimethyl-2-thienyl)carbonyl]-1H-1,2,4-triazol-3-yl]amino]-N-[2-(dimethylamino)ethyl]-benzenesulfonamide] were, in that order, 0.014 µM, 0.032 µM, 0.03 µM and 0.936 µM.
The like results for `Cc1ccsc1C(=O)n1nc(Nc2ccc(NS(C)(=O)=O)cc2)nc1N` [Cpd 109, N-[4-[[5-amino-1-[(3-methyl-2-thienyl)carbonyl]-1H-1,2,4-triazol-3-yl]amino]phenyl]-methanesulfonamide] were, in that order, 0.147 µM, 0.025 µM, 0.17 µM and > 100 µM.
For the molecule `CCc1ccc(C(=O)n2nc(Nc3ccc(NS(C)(=O)=O)cc3)nc2N)s1` [Cpd 110, N-[4-[[5-amino-1-[(5-ethyl-2-thienyl)carbonyl]-1H-1,2,4-triazol-3-yl]amino]phenyl]-methanesulfonamide], the values for the IC50 (at CDK1:Cyclin-B; in assay [3]; in assay [5]) were 0.022 µM, 0.014 µM and > 10 µM, respectively.
Regarding `Cc1ccc(F)c(C(=O)n2nc(Nc3ccc(N4CCNC4=O)cc3)nc2N)c1F` [Cpd 114, 1-[4-[[5-amino-1-(2,6-difluoro-3-methylbenzoyl)-1H 1,2,4-triazol-3-yl]amino]phenyl]-2-imidazolidinone], the IC50 at CDK1:Cyclin-B is 0.228 µM; in assay [3], 0.313 µM; in assay [4] it was 1.39 µM; in assay [5], > 100 µM.
With `Nc1nc(Nc2ccc(N3CCNC3=O)cc2)nn1C(=O)c1c(F)cccc1F` [Cpd 115, 1-[4-[[5-axnino-1-(2,6-difluorobenzoyl)-1H-1,2,4-triazol-3-yl]amino]phenyl]-2-imidazolidinone], the IC50 on CDK1:Cyclin-B was 0.313 µM; in assay [3], 0.467 µM; in assay [4], 1.44 µM; in assay [5], > 10 µM.
As to `Nc1nc(Nc2ccc(N3CCCS3(=O)=O)cc2)nn1C(=O)c1c(F)cccc1F` [Cpd 117, 1-(2,6-difluorobenzoyl)-N^3-[4-(1,1-dioxido-2-isothiazolidinyl)phenyl]-1H-1,2,4-triazole-3,5-diamine], the IC50 was 0.035 µM on CDK1:Cyclin-B, 5.44 µM in [4] and > 100 µM in assay [5].
In the case of `Cc1ccsc1C(=O)n1nc(Nc2ccc(S(=O)(=O)Nc3ccccn3)cc2)nc1N` [Cpd 121, 4-[[5-amino-1-[(3-methyl-2-thienyl)carbonyl]-1H-1,2,4-triazol-3-yl]amino]-N-(2-pyridinyl)-benzenesulfonamide], the IC50 was 0.099 µM on CDK1:Cyclin-B, 0.027 µM in assay [3], 0.717 µM in assay [4] and > 10 µM in [5].
On to `Nc1nc(Nc2ccc(S(N)(=O)=O)cc2)n(C(=S)Nc2c(F)cccc2F)n1` [Cpd 128, 3-amino-5-[[4-(aminosulfonyl)phenyl]amino]-N-(2,6-difluorophenyl)-1H-1,2,4-triazole-1-carbothioamide], for which the IC50 in the assay with A375 malignant melanoma is 968 nM; in the assay with HCT-116 colon carcinoma, 910 nM; in assay [1], 128 nM; in assay [4] it was 0.11 µM; in [5] it was > 100 µM.
